This note sets out measurements from patent US20250108038A1 (priority 2023, published 2025).

By inhibition is commonly meant the drop in the measured response relative to a control, in per cent. For orientation: IC50 means the concentration that gives 50% inhibition. Low values mean greater potency in that assay, high ones weaker potency in that assay. One may read the half-life as the time in which the quantity being followed falls by half.

Values joined by “and” are separate entries in the source; they are usually repeats but may differ in a detail not shown here. Identical values can stand only once. Like-named read-outs stand apart in the source and are kept apart here.

The target of series [1] is T1, CYP2C8 (Homo sapiens, UniProt P10632).
T1 sequence (P10632 1-490): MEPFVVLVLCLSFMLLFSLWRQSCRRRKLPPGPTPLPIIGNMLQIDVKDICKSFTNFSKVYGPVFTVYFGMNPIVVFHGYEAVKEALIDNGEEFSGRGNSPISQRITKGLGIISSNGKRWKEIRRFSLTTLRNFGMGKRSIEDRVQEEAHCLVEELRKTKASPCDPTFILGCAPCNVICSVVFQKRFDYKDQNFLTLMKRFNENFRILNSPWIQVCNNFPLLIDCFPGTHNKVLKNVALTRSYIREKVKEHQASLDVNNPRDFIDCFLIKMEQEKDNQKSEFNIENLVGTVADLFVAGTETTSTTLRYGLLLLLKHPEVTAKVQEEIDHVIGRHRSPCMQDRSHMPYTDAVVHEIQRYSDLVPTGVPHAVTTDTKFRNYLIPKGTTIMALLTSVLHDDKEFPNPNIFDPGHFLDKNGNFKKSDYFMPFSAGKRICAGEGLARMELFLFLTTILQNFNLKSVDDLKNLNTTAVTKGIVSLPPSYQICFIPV
Nature of the series: in vitro. The following applies: both, pH 7.4.

The target of series [2] is CYP2D6 (Homo sapiens, UniProt P10635). In words: in vitro. Particulars: both, pH 7.4.
Series [3] concerns the target CYP2C9 (Homo sapiens, UniProt P11712). In words: in vitro. Particulars: both, pH 7.4.
Series [4] concerns the target T2, CYP1A2 (Homo sapiens, UniProt P05177).
T2 sequence (P05177 1-516): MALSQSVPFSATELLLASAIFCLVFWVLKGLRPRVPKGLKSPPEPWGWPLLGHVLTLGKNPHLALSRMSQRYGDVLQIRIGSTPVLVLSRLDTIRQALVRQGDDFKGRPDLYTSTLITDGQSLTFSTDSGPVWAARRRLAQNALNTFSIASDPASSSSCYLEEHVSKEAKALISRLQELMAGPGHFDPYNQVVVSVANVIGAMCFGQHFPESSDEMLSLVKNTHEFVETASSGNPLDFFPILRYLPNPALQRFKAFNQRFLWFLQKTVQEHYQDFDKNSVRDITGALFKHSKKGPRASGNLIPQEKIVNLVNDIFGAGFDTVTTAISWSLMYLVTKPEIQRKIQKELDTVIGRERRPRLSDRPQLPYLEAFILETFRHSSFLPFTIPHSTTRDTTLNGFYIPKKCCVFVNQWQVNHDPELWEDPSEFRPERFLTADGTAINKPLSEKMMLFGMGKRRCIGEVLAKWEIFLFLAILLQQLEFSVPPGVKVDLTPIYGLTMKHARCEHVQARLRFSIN
Nature of the series: in vitro. Particulars: both, microsomes, pH 7.4.

Series [5] concerns the target T3, CYP2C19 (Homo sapiens, UniProt P33261). In words: biochemical.
The target of series [6] is T3, CYP2C19. Nature of the series: in vitro. The following applies: both, pH 7.4.
Series [7] has as its target T4, MATE1 (Homo sapiens, UniProt Q96FL8).
T4 sequence (Q96FL8 1-570): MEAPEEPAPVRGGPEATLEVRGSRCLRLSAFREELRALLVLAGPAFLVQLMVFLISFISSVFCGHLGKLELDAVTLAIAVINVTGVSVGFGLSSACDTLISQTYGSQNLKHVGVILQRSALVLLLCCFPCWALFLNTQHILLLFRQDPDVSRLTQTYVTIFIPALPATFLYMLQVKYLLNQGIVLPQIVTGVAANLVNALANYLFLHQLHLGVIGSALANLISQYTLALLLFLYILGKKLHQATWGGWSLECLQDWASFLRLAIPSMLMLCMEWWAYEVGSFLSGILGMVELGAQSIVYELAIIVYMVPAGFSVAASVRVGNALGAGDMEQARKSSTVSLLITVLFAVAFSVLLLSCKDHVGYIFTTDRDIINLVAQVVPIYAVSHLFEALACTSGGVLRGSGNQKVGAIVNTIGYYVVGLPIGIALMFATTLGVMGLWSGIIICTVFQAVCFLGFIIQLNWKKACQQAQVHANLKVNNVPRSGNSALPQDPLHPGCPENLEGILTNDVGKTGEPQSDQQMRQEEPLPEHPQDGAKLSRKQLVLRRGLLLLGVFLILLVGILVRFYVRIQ
In words: in vitro.
Description: (§1) Uptake experiments were performed using HEK293 cells stably expressing the respective uptake transporters.
(§2) Cells were cultured at 37° C. in a humidified atmosphere containing 5% CO2 and were plated onto standard 96-well tissue culture plates.
(§3) Before the experiment, the medium was removed, and the cells were washed twice with 100 μL of pre-warmed (37° C.) assay buffer listed in Table 15. The cells were pre-incubated at 37° C. for 30 minutes in assay buffer containing the test article at appropriate concentrations (Table 16), appropriate solvents for solvent controls and the reference inhibitor for reference inhibitor wells. After the pre-incubation step solutions were removed. Uptake experiments were performed at 37° C. in 50 μL of assay buffer containing the probe substrate and the test article or solvent and controls.
(§4) After the experiment, cells were washed twice with 100 μL of appropriate cold buffer and lysed with 150 μL scintillation cocktail. Radiolabeled probe substrate transport was determined by liquid scintillation counting.
(§5) Uptake of the probe substrate in control cells provided background activity values for all data points.

For series [8], the target named is T4, MATE1.
Description: as §1, §2, §3, §4, §5
The target in series [9] is T5, MATE2-K (Homo sapiens, UniProt Q86VL8). Nature of the series: in vitro.
Description: as §1, §2, §3, §4, §5
Series [10] addresses T5, MATE2-K.
Description: as §1, §2, §3, §4, §5
A short description of series [11]: in vitro. The following applies: beagle, dog, plasma.
Description: (§6) Pooled (N≥3) male SD rat, beagle dog and mixed gender human plasma with EDTA-K2 as anticoagulant were purchased from BioIVT (NY, USA) and stored in a −70° C. freezer before use.
(§7) Incubations were conducted in 96-well plate format. The time points defined for this study are 0, 5, 15, 30 and 60 minutes.
(§8) For positive controls, the rat plasma was spiked with enalapril, the dog plasma spiked with bisacodyl and the human plasma was spiked with propantheline. All spiked plasma sample plates were incubated in a water bath at 37° C. with shaking.
(§9) At end of each time point, samples were immediately quenched with three volume of cold quenching solution. All sample plates were mixed thoroughly by shaking for approximately 10 minutes and centrifuged at 3220×g for 15 minutes. Subsequently, 100 μL of supernatant was removed from each well, mixed with 100 μL water in a new 96-well plate and subjected to LC-MS/MS analysis.
(§10) Concentrations of test article, metabolite, and control compounds in the samples were analyzed by LC-MS/MS semi-quantitatively. […] The peak area ratios of analyte/internal standard were used to semi-quantitatively determine the concentrations.
(§11) The peak area ratios (PAR) of analyte/internal standard were used to semi-quantitatively determine the concentration of test article and control compounds, and calculate the percent remaining with the following equation:
(§12) The elimination rate (ke) was calculated from a log linear plot of % remaining versus time. The half-life was calculated using the following equation:
Series [12] can be described thus: Stability in beagle dog plasma. The following applies: 2.0 μM.
Description: as §6, §7, §8, §9, §10, §11, §12

T5 sequence (Q86VL8 1-566 isoform Q86VL8-3): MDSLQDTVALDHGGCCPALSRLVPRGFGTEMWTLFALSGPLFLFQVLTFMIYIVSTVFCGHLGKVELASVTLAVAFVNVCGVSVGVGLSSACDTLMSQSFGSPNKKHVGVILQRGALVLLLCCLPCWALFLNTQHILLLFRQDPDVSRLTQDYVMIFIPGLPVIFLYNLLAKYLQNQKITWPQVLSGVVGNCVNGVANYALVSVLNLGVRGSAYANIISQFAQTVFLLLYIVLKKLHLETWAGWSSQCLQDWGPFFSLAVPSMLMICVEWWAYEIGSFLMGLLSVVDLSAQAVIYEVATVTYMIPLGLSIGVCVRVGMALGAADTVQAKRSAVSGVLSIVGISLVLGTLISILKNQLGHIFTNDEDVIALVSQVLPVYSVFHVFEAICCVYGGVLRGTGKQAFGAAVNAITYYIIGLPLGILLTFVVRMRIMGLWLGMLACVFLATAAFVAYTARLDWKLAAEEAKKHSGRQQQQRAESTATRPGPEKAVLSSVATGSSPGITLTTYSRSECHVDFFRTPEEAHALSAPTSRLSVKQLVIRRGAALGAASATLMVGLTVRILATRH
T3 sequence (P33261 whole entry): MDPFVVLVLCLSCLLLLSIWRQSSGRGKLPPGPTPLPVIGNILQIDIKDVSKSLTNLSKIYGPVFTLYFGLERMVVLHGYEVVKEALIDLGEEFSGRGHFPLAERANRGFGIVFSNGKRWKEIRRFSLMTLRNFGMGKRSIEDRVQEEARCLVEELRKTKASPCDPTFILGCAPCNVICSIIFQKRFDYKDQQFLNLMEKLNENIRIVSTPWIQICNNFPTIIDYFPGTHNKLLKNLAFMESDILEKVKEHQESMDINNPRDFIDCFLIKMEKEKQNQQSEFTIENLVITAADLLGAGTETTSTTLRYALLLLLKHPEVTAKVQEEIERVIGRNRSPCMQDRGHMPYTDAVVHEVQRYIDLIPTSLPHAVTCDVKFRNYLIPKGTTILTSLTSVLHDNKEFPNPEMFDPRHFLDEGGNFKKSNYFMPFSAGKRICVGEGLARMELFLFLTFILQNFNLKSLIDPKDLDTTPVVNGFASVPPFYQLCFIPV
Sequence of CYP2D6 (P10635 whole entry): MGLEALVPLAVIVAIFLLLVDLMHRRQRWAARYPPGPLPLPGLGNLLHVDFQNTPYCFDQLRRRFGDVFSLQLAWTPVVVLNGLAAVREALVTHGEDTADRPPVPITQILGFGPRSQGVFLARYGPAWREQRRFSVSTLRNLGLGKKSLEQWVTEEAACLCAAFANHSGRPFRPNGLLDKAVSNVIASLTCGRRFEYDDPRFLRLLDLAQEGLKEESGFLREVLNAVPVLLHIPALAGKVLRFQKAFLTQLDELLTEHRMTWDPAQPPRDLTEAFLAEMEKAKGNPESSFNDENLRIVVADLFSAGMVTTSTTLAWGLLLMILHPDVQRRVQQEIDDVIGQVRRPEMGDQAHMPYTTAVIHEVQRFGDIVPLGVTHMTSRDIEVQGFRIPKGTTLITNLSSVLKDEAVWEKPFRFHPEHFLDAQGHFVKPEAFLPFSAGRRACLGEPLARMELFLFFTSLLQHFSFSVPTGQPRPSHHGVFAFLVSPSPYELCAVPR
Sequence of CYP2C9 (P11712 whole entry): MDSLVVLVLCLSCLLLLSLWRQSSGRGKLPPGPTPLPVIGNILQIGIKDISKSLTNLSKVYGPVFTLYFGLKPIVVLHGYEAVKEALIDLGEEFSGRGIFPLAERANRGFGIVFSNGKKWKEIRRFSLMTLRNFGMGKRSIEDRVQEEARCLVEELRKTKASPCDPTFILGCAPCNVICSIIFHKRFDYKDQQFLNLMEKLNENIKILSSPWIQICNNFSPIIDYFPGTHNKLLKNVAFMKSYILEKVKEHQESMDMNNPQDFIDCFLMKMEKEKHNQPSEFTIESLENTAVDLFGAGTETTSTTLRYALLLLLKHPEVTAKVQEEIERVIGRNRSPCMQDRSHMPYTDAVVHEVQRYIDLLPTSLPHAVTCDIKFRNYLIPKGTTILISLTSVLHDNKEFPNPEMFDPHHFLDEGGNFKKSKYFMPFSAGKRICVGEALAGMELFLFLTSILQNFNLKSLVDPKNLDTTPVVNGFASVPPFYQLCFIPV

On to `O=c1c(O)c(-c2ccc(O)c(O)c2)oc2cc(O)cc(O)c12` [Quercetin], for which the inhibition at 50 µM in [1] is 102%.
For `C=C[C@H]1C[N@@]2CC[C@H]1C[C@@H]2[C@@H](O)c1ccnc2ccc(OC)cc12` [Quinidine], in series [2], the inhibition at 5 µM amounted to 96.2%.
As for `Nc1ccc(S(=O)(=O)Nc2ccnn2-c2ccccc2)cc1` [Sulfaphenazole], the inhibition at 50 µM in series [3] was 98.7%.
Consider `COCCCC/C(=N\OCCN)c1ccc(C(F)(F)F)cc1` [Fluvoxamine], for which the inhibition at 50 µM in series [4] turned out to be 101%.
Take `COc1ccc2[nH]c([S+]([O-])Cc3ncc(C)c(OC)c3C)nc2c1` (stereo not shown) [Omeprazole]: the IC50 in [5] came to 7.36 µM. Besides, in [6], the inhibition at 50 µM amounted to 89.9%.
As to `CCc1nc(N)nc(N)c1-c1ccc(Cl)cc1` [Pyrimethamine], the inhibition at 5 µM was 102% in series [7] and 95% in series [9]. Further, the inhibition at 5 μM is 101% in [7] and 98% in series [9]. The inhibition in [8] is 100%; in series [8] (5 µM), 100%; in series [10], 101%; in [10] (5 µM) it was 101% and 102% and 100%.
In turn, `CC(=O)Oc1ccc(C(c2ccc(OC(C)=O)cc2)c2ccccn2)cc1` [Bisacodyl, reference compound] yielded a half-life at 2 μM in series [11] of 3.6 min. Moreover, the “% Remaining” value in series [12] (0 min) is listed as 100%; in series [12] (5 min), 45.9%; in [12] (15 min) it was 8.79%; in [12] (30 min), 0.34%; in series [12] (60 min), 0.00%. Further, the “Aa/Ai Mean (N = 2)” value amounted to 1.49 in series [12] (0 min); 0.68 in series [12] (5 min); 0.13 in series [12] (15 min); 0.01 in series [12] (30 min); 0.00 in series [12] (60 min).
